Tests used:
Assay type in all cases: cell-based
Conditions in all cases: ex vivo 1% w/v fecal slurry from 12 subjects, glycan 0.5% w/v, 37° C., 18 hours, anaerobic
[1] = tested on: Actinobacteria and/or Coriobacteriaceae/Gordonibacter; assay: Ex vivo fecal slurry assay, 16S rRNA sequencing (Example 13)
Source text: (§1) An ex vivo assay was designed to determine if glycans can be used to modulate a complex community of microorganisms and if the glycans produced consistent effects across communities obtained from multiple (twelve) subjects. Fecal samples and slurries were handled in an anaerobic chamber (AS-580, Anaerobe Systems) featuring a palladium catalyst. Glycans ara100, gal100, glu60man40, glu100, glu50gal50, gal33man33ara33, man75gal25, glu33gal33man34, glu33gal33Ara33, man100, man52glu29gal19 and commercially available glycans lactulose (Alfa Aesar) and FOS (Nutraflora FOS; NOW Foods, Bloomingdale Ill.) were included in the study. The fecal sample donations obtained from 12 subjects were stored at −80° C. To prepare working stocks the fecal samples were transferred into the anaerobic chamber and allowed to thaw.

[2] = tested on: Enterobacteriales/Enterobacteriaceae microbes; assay: Ex vivo fecal slurry assay, 16S rRNA sequencing (Example 19)
Source text: as §1

[3] = tested on: Enterococcaceae/Enterococcus and/or Enterobacteriaceae/Escherichia/Shigella microbes; assay: Ex vivo fecal slurry assay, 16S rRNA sequencing (Example 18)
Source text: as §1

[4] = tested on: Enterococcaceae/Enterococcus and/or Bifidobacteriaceae/Bifidobacterium; assay: Ex vivo fecal slurry assay, 16S rRNA sequencing (Example 15)
Source text: as §1

[5] = tested on: Enterobacteriaceae/Escherichia/Shigella microbes; assay: Ex vivo fecal slurry assay, 16S rRNA sequencing (Example 17)
Source text: as §1

[6] = tested on: Ruminococcaceae/Ruminococcus microbes; assay: Ex vivo fecal slurry assay, 16S rRNA sequencing (Example 21)
Source text: as §1

[7] = tested on: Firmicutes, Proteobacteria, and/or Actinobacteria; assay: Ex vivo fecal slurry assay, 16S rRNA sequencing (Example 11)
Source text: as §1

How did the “levels of Actinobacteria and/or Coriobacteriaceae/Gordonibacter” value [1] turn out when `OC[C@H]1O[C@@H](O[C@@H]2[C@@H](CO)OC(O)(CO)[C@H]2O)[C@H](O)[C@@H](O)[C@H]1O` (mixture of isomers) [lactulose] was run?
The value was “decrease”.

What about the “levels of Enterobacteriales/Enterobacteriaceae microbes” value [2] of the same compound?
The value was “decrease”.

What about the “levels of Enterococcaceae/Enterococcus and/or Enterobacteriaceae/Escherichia/Shigella microbes” value [3] of the same compound?
The value was “decrease”.

What about the “levels Enterococcaceae/Enterococcus and/or Bifidobacteriaceae/Bifidobacterium” value [4] of the same compound?
Its value is “increase”.

What about the “levels of Enterobacteriaceae/Escherichia/Shigella microbes” value [5] of the same compound?
Its value is “decrease”.

What about the “levels of Ruminococcaceae/Ruminococcus microbes” value [6] of the same compound?
The value was “decrease”.

What about the “levels of Firmicutes, Proteobacteria, and/or Actinobacteria” value [7] of the same compound?
Its value is “decrease”.

From US20210137964A1, “GLYCAN COMPOSITIONS AND METHODS OF USE” (KALEIDO BIOSCIENCES, INC., priority 2016, published 2021)
